In US9957265B2, “N-(2-cyano heterocyclyl) pyrazolo pyridones as janus kinase inhibitors” (Merck Sharp & Dohme Corp., priority 2013, dated 2018):
Read-outs that look alike come from different tables or passages of the source.

What was measured:
[1] = biological target: JAK2 (Homo sapiens (Human), UniProt O60674); experiment: Jak Biochemical HTRF Assay (JAK2)
[2] = biological target: JAK1 (Homo sapiens (Human), UniProt P23458); experiment: Jak Biochemical HTRF Assay (JAK1); conditions: recombinant GST-tagged catalytic domain, [ATP] 31.8 μM, unit not given (compound concentrations tested given in nM)
Chain of JAK1 (P23458 875-1153): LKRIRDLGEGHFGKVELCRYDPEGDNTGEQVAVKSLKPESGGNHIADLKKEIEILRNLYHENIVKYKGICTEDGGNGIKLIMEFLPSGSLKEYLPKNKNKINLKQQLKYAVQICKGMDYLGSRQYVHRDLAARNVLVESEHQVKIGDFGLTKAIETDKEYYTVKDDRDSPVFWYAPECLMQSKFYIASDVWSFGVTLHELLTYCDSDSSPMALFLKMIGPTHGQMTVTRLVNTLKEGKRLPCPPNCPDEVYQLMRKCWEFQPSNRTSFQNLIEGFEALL
Text: Jak Biochemical HTRF Assay Protocol
Subsequent reagent additions employed an Agilent Bravo.

[3] = read-out: JAK2 IC50, recombinant GST-tagged catalytic domain, [ATP] 8.5 μM, unit not given (compound concentrations tested given in nM)
[4] = JAK2 IC50, recombinant GST-tagged catalytic domain, [ATP] 8.5 μM, unit not given (compound concentrations tested given in nM)

Chain of JAK2 (O60674 849-1124): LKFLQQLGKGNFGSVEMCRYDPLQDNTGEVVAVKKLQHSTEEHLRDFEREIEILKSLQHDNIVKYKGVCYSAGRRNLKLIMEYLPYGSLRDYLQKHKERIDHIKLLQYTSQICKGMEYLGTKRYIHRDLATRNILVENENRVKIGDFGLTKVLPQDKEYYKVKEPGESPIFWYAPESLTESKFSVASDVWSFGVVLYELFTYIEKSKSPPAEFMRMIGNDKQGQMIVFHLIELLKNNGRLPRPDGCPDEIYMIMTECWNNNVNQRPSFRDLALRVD

Structure (SMILES): CC1(C)C(=O)Nc2cc(Nc3nn([C@H]4COCC[C@@H]4C#N)c4cc[nH]c(=O)c34)ccc21 [Example 2-2, (3R,4S)-3-{3-[(3,3-dimethyl-2-oxo-2,3-dihydro-1H-indol-6-yl)amino]-4-oxo-4,5-dihydro-1H-pyrazolo [4,3-c]pyridin-1-yl}tetrahydro-2H-pyran-4-carbonitrile]
- IC50 [1, 3]: 0.16 nM
- IC50 [2]: 0.05 nM

Structure (SMILES): N#C[C@H]1CCOC[C@@H]1n1nc(Nc2ccc(C(N3CCCC3)C(F)(F)F)cc2)c2c(=O)[nH]ccc21 (single isomer, unassigned) [Example 1-43, (3R,4S)-3-[4-oxo-3-({4-[(1S or 1R)-2,2,2-trifluoro-1-pyrrolidin-1-ylethyl]phenyl}amino)-4,5-dihydro-1H-pyrazolo[4,3-c]pyridin-1-yl]tetrahydro-2H-pyran-4-carbonitrile]
- IC50 [1, 4]: 0.08 nM
- IC50 [2]: 0.04 nM

Structure (SMILES): CC(C)(C)CNC(c1ccc(Nc2nn([C@H]3COCC[C@@H]3C#N)c3cc[nH]c(=O)c23)cc1)C(F)(F)F (single isomer, unassigned) [Example 1-82, (3R,4S)-3-{3-[(4-{[1S or 1R)-1-[(2,2-dimethylpropyl)amino]-2,2,2-trifluoroethyl}phenyl)amino]-4-oxo-4,5-dihydro-1H-pyrazolo[4,3-c]pyridin-1-yl} tetrahydro-2H-pyran-4-carbonitrile]
- IC50 [1, 4]: 2.56 nM
- IC50 [2]: 0.87 nM

Structure (SMILES): Cc1nc2ccc(Nc3nn([C@@H]4COCC[C@@H]4C#N)c4cc[nH]c(=O)c34)cc2s1 [Example 2-1, (3S,4S)-3-{3-[(2-methyl-1,3-benzothiazol-6-yl)amino]-4-oxo-4,5-dihydro-1H-pyrazolo[4,3-c]pyridin-1-yl}tetrahydro-2H-pyran-4-carbonitrile]
- IC50 [1, 3]: 0.89 nM
- IC50 [2]: 0.03 nM

Structure (SMILES): CC(C)(C)S(=O)(=O)c1ccc(Nc2nn([C@H]3CCOCC[C@@H]3C#N)c3cc[nH]c(=O)c23)cc1 (single isomer, unassigned) [Example 1-26, (4S,5S or 4R,5R)-5-(3-{[4-(tert-butylsulfonyl)phenyl]amino}-4-oxo-4,5-dihydro-1H-pyrazolo[4,3-c]pyridin-1-yl)oxepane-4-carbonitrile]
- IC50 [2]: 0.71 nM

Structure (SMILES): CC(C)(C)S(=O)(=O)c1ccc(Nc2nn([C@H]3COCCC[C@@H]3C#N)c3cc[nH]c(=O)c23)cc1 (single isomer, unassigned) [Example 1-22, (3R,4S or 3S,4R)-3-(3-{[4-(tert-butylsulfonyl)phenyl]amino}-4-oxo-4,5-dihydro-1H-pyrazolo[4,3-c]pyridin-1-yl)oxepane-4-carbonitrile]
- IC50 [1, 4]: 21.2 nM
- IC50 [2]: 17.3 nM

Structure (SMILES): CC(O)(c1ccc(Nc2nn([C@H]3COCC[C@@H]3C#N)c3cc[nH]c(=O)c23)cc1)C(F)(F)F (single isomer, unassigned) [Example 2-4, (3R,4S)-3-[4-oxo-3-({4-[(1R or 1S)-2,2,2-trifluoro-1-hydroxy-1-methylethyl]phenyl}amino)-4,5-dihydro-1H-pyrazolo[4,3-c]pyridin-1-yl]tetrahydro-2H-pyran-4-carbonitrile]
- IC50 [1, 4]: 0.27 nM
- IC50 [2]: 0.05 nM

Structure (SMILES): CC1(C)CC1NC(c1ccc(Nc2nn([C@H]3COCC[C@@H]3C#N)c3cc[nH]c(=O)c23)cc1)C(F)(F)F (single isomer, unassigned) [Example 1-47, (3R,4S)-3-{3-[(4S or 4R-{1S or 1R-[(2,2-dimethylcyclopropyl)amino]-2,2,2-trifluoroethyl}phenyl)amino]-4-oxo-4,5-dihydro-1H-pyrazolo[4,3-c]pyridin-1-yl}tetrahydro-2H-pyran-4-carbonitrile]
- IC50 [1, 4]: 0.43 nM
- IC50 [2]: 0.27 nM

Structure (SMILES): CC1(C)CC2(c3ccc(Nc4nn([C@H]5COCC[C@@H]5C#N)c5cc[nH]c(=O)c45)cc3)CCC1C(=O)O2 (stereo partly drawn) [Example 1-20, (3R,4S)-3-(3-{[4-(5,5-dimethyl-3-oxo-2-oxabicyclo[2.2.2]oct-1-yl)phenyl]amino}-4-oxo-4,5-dihydro-1H-pyrazolo[4,3-c]pyridin-1-yl)tetrahydro-2H-pyran-4-carbonitrile]
- IC50 [2]: 0.07 nM

Structure (SMILES): N#C[C@H]1CCOC[C@@H]1n1nc(Nc2ccc(C(NC3CC3)C(F)(F)F)cc2)c2c(=O)[nH]ccc21 (single isomer, unassigned) [Example 1-81, (3R,4S)-3-[3-({4-[(1R or 1S)-1-(cyclopropylamino)-2,2,2-trifluoroethyl]phenyl}amino)-4-oxo-4,5-dihydro-1H-pyrazolo[4,3-c]pyridin-1-yl]tetrahydro-2H-pyran-4-carbonitrile]
- IC50 [1, 3]: 0.15 nM
- IC50 [2]: 0.08 nM

Structure (SMILES): CC(C)(N)c1ccc(Nc2nn([C@H]3COCC[C@@H]3C#N)c3cc[nH]c(=O)c23)cc1 [Example 1-60, (3R,4S)-3-(3-{[4-(1-amino-1-methylethyl)phenyl]amino}-4-oxo-4,5-dihydro-1H-pyrazolo[4,3-c]pyridin-1-yl)tetrahydro-2H-pyran-4-carbonitrile]
- IC50 [2]: 0.21 nM

Structure (SMILES): N#C[C@H]1CCOC[C@@H]1n1nc(Nc2ccc(C(N3CCC3)C(F)(F)F)cc2)c2c(=O)[nH]ccc21 (single isomer, unassigned) [Example 1-56, (3R,4S)-3-[3-({4-[(1R or 1S)-1-azetidin-1-yl-2,2,2-trifluoroethyl]phenyl}amino)-4-oxo-4,5-dihydro-1H-pyrazolo[4,3-c]pyridin-1-yl]tetrahydro-2H-pyran-4-carbonitrile]
- IC50 [2]: 0.06 nM

Structure (SMILES): N#C[C@H]1CCOC[C@@H]1n1nc(Nc2ccc(C(N3CCC3)C(F)(F)F)cc2)c2c(=O)[nH]ccc21 (single isomer, unassigned) [Example 1-57, (3R,4S)-3-[3-({4-[(1S or 1R)-1-azetidin-1-yl-2,2,2-trifluoroethyl]phenyl}amino)-4-oxo-4,5-dihydro-1H-pyrazolo[4,3-c]pyridin-1-yl]tetrahydro-2H-pyran-4-carbonitrile]
- IC50 [2]: 0.09 nM

Structure (SMILES): CC1CN(S(=O)(=O)c2ccc(Nc3nn([C@H]4COCC[C@@H]4C#N)c4cc[nH]c(=O)c34)cc2)C1 [Example 1-70, (3R,4S)-3-[3-({4-[(3-methylazetidin-1-yl)sulfonyl]phenyl}amino)-4-oxo-4,5-dihydro-1H-pyrazolo[4,3-c]pyridin-1-yl]tetrahydro-2H-pyran-4-carbonitrile]
- IC50 [2]: 0.15 nM

Structure (SMILES): CC(C)(C)NC(c1ccc(Nc2nn([C@H]3COCC[C@@H]3C#N)c3cc[nH]c(=O)c23)cc1)C(F)(F)F (single isomer, unassigned) [Example 1-50, (3R,4S)-3-[3-({4-[(1R or 1S)-1-(tert-butylamino)-2,2,2-trifluoroethyl]phenyl}amino)-4-oxo-4,5-dihydro-1H-pyrazolo[4,3-c]pyridine-1-yl]tetrahydro-2H-pyran-4-carbonitrile]
- IC50 [2]: 0.08 nM

Structure (SMILES): CC1(C)CC2(c3ccc(Nc4nn([C@H]5COCC[C@@H]5C#N)c5cc[nH]c(=O)c45)cc3)CCC1C(=O)O2 (stereo partly drawn) [Example 1-21, (3R,4S)-3-(3-{[4-(5,5-dimethyl-3-oxo-2-oxabicyclo[2.2.2]oct-1-yl)phenyl]amino}-4-oxo-4,5-dihydro-1H-pyrazolo[4,3-c]pyridin-1-yl)tetrahydro-2H-pyran-4-carbonitrile]
- IC50 [2]: 0.08 nM

Structure (SMILES): N#C[C@H]1CCOCC1n1nc(Nc2ccc(C3(C(F)(F)F)CCNC3)cc2)c2c(=O)[nH]ccc21 (single isomer, unassigned) [Example 1-98, (3R,4S)-3-(4-oxo-3-((4-((S or R)-3-(trifluoromethyl)pyrrolidin-3-yl)phenyl)amino)-4,5-dihydro-1H-pyrazolo[4,3-c]pyridin-1-yl)tetrahydro-2H-pyran-4-carbonitrile]
- IC50 [2]: 0.06 nM

Structure (SMILES): CC(C)(C)NC(c1ccc(Nc2nn([C@H]3COCC[C@@H]3C#N)c3cc[nH]c(=O)c23)cc1)C(F)(F)F (single isomer, unassigned) [Example 1-51, (3R,4S)-3-[3-[3-({4-[(1S or 1R)-1-(tert-butylamino)-2,2,2-trifluoroethyl]phenyl}amino)-4-oxo-4,5-dihydro-1H-pyrazolo[4,3-c]pyridin-1-yl]tetrahydro-2H-pyran-4-carbonitrile]
- IC50 [2]: 0.08 nM

Structure (SMILES): CC(C)(C)S(=O)(=O)c1ccc(Nc2nn([C@H]3CCOCC[C@H]3C#N)c3cc[nH]c(=O)c23)cc1 (single isomer, unassigned) [Example 1-28, (4R,5S or 4S,5R)-5-(3-{[4-(tert-butylsulfonyl)phenyl]amino}-4-oxo-4,5-dihydro-1H-pyrazolo[4,3-c]pyridin-1-yl)oxepane-4-carbonitrile]
- IC50 [2]: 5.34 nM

Structure (SMILES): CC(C)(C)S(=O)(=O)c1ccc(Nc2nn([C@@H]3CCOCC[C@H]3C#N)c3cc[nH]c(=O)c23)cc1 (single isomer, unassigned) [Example 1-27, (4R,5R or 4S,5S)-5-(3-{[4-(tert-butylsulfonyl)phenyl]amino}-4-oxo-4,5-dihydro-1H-pyrazolo[4,3-c]pyridin-1-yl)oxepane-4-carbonitrile]
- IC50 [2]: 22.4 nM

Structure (SMILES): CC(C)C(C)(C)S(=O)(=O)c1ccc(Nc2nn([C@H]3COCC[C@@H]3C#N)c3cc[nH]c(=O)c23)cc1 [Example 1-66, (3R,4S)-3-[4-oxo-3-({4-[(1,1,2-trimethylpropyl)sulfonyl]phenyl}amino)-4,5-dihydro-1H-pyrazolo[4,3-c]pyridin-1-yl]tetrahydro-2H-pyran-4-carbonitrile]
- IC50 [2]: 0.07 nM

Structure (SMILES): CC(C)(C)S(=O)(=O)c1ccc(Nc2nn([C@@H]3CCOCC[C@@H]3C#N)c3cc[nH]c(=O)c23)cc1 (single isomer, unassigned) [Example 1-29, (4S,5R or 4R,5S)-5-(3-{[4-(tert-butylsulfonyl)phenyl]amino}-4-oxo-4,5-dihydro-1H-pyrazolo[4,3-c]pyridin-1-yl)oxepane-4-carbonitrile]
- IC50 [2]: 4.38 nM

Structure (SMILES): N#C[C@H]1CCOCC1n1nc(Nc2ccc(C3(C(F)(F)F)CCNC3)cc2)c2c(=O)[nH]ccc21 (single isomer, unassigned) [Example 1-99, (3R,4S)-3-(4-oxo-3-((4-((S or R)-3-(trifluoromethyl)pyrrolidin-3-yl)phenyl)amino)-4,5-dihydro-1H-pyrazolo[4,3-c]pyridin-1-yl)tetrahydro-2H-pyran-4-carbonitrile]
- IC50 [2]: 0.07 nM
